Results taken from paper PMC11129182, “Development of Inhibitors, Probes, and PROTAC Provides a Complete Toolbox to Study PARK7 in the Living Cell” (Journal of Medicinal Chemistry, 2024).
“Also recorded” adds a separate entry of the source. Read-outs that look alike come from different tables or passages of the source.

Columns and labels:
[1] = test system: DUBs; experiment: Activity-based DUB profiling with Rho-Ub-PA probe in HEK293T cells; format: cell-based, human; conditions: 5 µM, 24 h
Protocol: Figure S3. Activity evaluation of inhibitors against DUBs in HEK293T cells. (A ) Inhibitors from structure modification. (B) Inhibitors from HTS. HEK293T cells were […]
incubation with Rho- Ub-PA probe for 30 min at 37 °C. Samples were resolved by SDS - […]
and visualized by fluorescence scanning on a Typhoon FLA 9500 (GE Healthcare Life […]
Nitrocellulose membranes and Western blot analysis.
(§1) (1 picture or pasted object on this page, not shown here)

[2] = biological target: T1, PARK7 (Homo sapiens, UniProt Q99497); experiment: Hit validation and pure-compound testing in the PARK7 FP assay with JYQ-107; format: biochemical; conditions: for inhibition at 0.25 µM: read-out: % Inhibition 0.25 µM
T1 sequence (Q99497 1-189): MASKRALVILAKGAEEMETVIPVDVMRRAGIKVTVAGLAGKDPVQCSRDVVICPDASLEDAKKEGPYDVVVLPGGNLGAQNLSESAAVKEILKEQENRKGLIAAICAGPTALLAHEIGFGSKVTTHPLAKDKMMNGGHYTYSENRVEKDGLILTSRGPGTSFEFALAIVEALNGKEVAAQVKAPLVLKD

[3] = biological target: T1, PARK7; experiment: Cell-based competition assay with probe JYQ-92 in HEK293T cells; conditions: 24 h
Protocol: Samples were resolved by SDS-PAGE and analyzed by fluorescence scanning and Western blotting (Figure 2B). The target engagement of cellular PARK7 is reflected by the disappearance of the PARK7 labeling band in the fluorescence gel scan and by the loss of the shifted probe-labeled PARK7 band in the Western blot.
HEK293T cells were treated with the indicated concentrations of indicated inhibitors for indicated incubation time.
Figure S1. Assessment of the cell permeability of JYQ -88. (A) Structure of JYQ-92.
(B) Target engagement of JYQ-88 in HEK293T cells. HEK293T cells were incubated […]
with PARK7 probe JYQ-92 fo r 1 h at 37 °C. The reactions were stopped by the addition of NuPAGE™ LDS sample buffer (4x). Samples were resolved by SDS -PAGE using […]
fluorescence scanning on a Typhoon FLA 9500 (GE Healthcare Life Sciences) using […]
The disappearance of the JYQ-92-labeled band in […]
of JYQ-88 is used as a measurement of cellular PARK7 engagement with JYQ -88.
as §1

[4] = biological target: T1, PARK7; experiment: High-throughput screen of the crude compound library, PARK7 fluorescence polarization (FP) assay with FP reagent JYQ-107; format: biochemical; conditions: 1.25 µM, crude compound library; read-out: HTS FP assay %Inhibition (1.25 µM)
[5] = biological target: T1, PARK7; conditions: read-out: IC50 (nM) DiFUMAc; 0.1 μM PARK7, 1 h preincubation, 300 μM DiFMUAc
Protocol: Compounds were transferred using a Labcyte Echo550 acoustic dispenser to obtain a 12-point serial dilution of 0.001–100 μM. Next, PARK7 (15 μL, final concentration 0.1 μM) was dispensed with a Biotek MultiFlowFX liquid dispenser and incubated for 1 h, followed by dispensing the substrate DiFMUAc (5 μL, final concentration 300 μM). The fluorescence intensity (FI) signal was monitored on a BMG Labtech PHERAstar plate reader (λex/em 350/450 nm) for 1 h.

[6] = biological target: T1, PARK7; experiment: Probe labeling of endogenous PARK7 in cells (HEK293T, A549); format: cell-based; conditions: for labeling of PARK7 in cells / cellular PARK7 labeling efficiency over time: 5 μM; for labeling of PARK7 in cells: 24 h; for cellular PARK7 labeling efficiency over time: A549 cells, indicated time points
Protocol: To further investigate the ability of these probes to visualize PARK7 in cells, HEK293T and A549 cells were incubated with 5 μM of these probes for 24 h, followed by cell lysis, SDS-PAGE, fluorescence scanning, and immunostaining (Supporting Information Figure S7). […] We also observed a band shift of the PARK7 protein in the samples treated with JYQ-192, JYQ-196, and JYQ-197 by immunoblot against PARK7 in A549 cells. […] Therefore, we further investigated JYQ-192, JYQ-196, and JYQ-197. To characterize their cell permeability, A549 cells were incubated with 5 μM final concentration of these probes for the indicated time points, followed by confocal microscopy and by cell lysis, SDS-PAGE, fluorescence scanning, and immunostaining. All three probes already entered the cells after 1 h incubation (Supporting Information Figure S8A). […] Besides PARK7, we observed extra bands in the fluorescence scan for both HEK293T and A549 cells and a very strong band labeling between 55 and 75 kDa in A549 cells with a 5 μM final concentration of all probes.
Despite the fact that probe JYQ-196 outperformed SulfoCy5 probes JYQ-192 and JYQ-197 in terms of the cellular PARK7 labeling efficiency, this probe still lacked specificity toward PARK7. PARK7 is known to form dimers, trimers, and even high-molecular-weight complexes under nonreducing conditions.[29],[30] […] To investigate further whether lower concentrations of JYQ-196 can decrease unspecific labeling, HEK293T and A549 cells were incubated with increased concentrations (0–10 μM) of JYQ-196 for 4 h, followed by cell lysis, SDS-PAGE, fluorescence scanning, and immunostaining (Figure 4C).
Oligos used to knockdown PARK7 were purchased from Dharmacon (Cat#: MQ-005984-00-0002). Silencing was performed in HEK293T and A549 cells as follows: for a 24-well plate format, 50 μL of siRNA (500 nM stock) was incubated with 1 μL of Dharmafect reagent 1 (Dharmacon) diluted in 50 μL of medium without supplements (total volume of 100 μL of transfection mix) with gentle shaking for 20 min at room temperature (RT). A total of 30 × 10^3 HEK293T or 50 × 10^3 cells were added to transfection mixes to a total volume of 500 μL per well and cultured for 48 h prior to incubation with 5 μM final concentration of JYQ-196 for 4 h.
HEK293T or A549 cells were incubated with indicated concentration of the probes for the indicated time points, followed by cell lysis and adding loading buffer (4x).

[7] = biological target: T1, PARK7; experiment: Probe labeling of purified recombinant PARK7; conditions: 1 μM PARK7, 1 h, 37 °C
Protocol: The ability of these probes to label and visualize PARK7 activity in vitro was evaluated by treating recombinant human PARK7 protein (1 μM) with a concentration series of the probes for 1 h at 37 °C, followed by SDS-PAGE analysis under nondenaturing conditions (without boiling and β-mercaptoethanol).
The assay was conducted in Tris-buffer (50 mM Tris-HCl, 150 mM NaCl, 2 mM TCEP, pH 7.5). PARK7 (1 μM final concentration) was incubated with different concentrations (0, 0.1, 0.5, 1, 2, 5, and 10 μM) of the indicated probes for 1 h at 37 °C. After completing the incubation time, all of the reactions were stopped by adding NuPAGE LDS sample buffer (4x).

CC(=O)N1CCN(S(=O)(=O)c2cccc(C(=O)N3CCc4nc(NC(=O)[C@@H]5CCN(C#N)C5)sc4C3)c2)CC1 [Compound 336, (R)-N-(5-(3-((4-Acetylpiperazin-1-yl)sulfonyl)benzoyl)-4,5,6,7-tetrahydrothiazolo[5,4-c]pyridin-2-yl)-1-cyanopyrrolidine-3-carboxamide]
inhibition of DUBs in cells [1]: did not show interference with the activity of any DUB | inhibition at 0.25 µM ([2]; crude compounds, 0.25 µM): 76.8% | inhibition at 0.5 µM ([2]; crude compounds, 0.5 µM, read-out: % Inhibition 0.5 µM): 91.5% | inhibition at 1 µM ([2]; crude compounds): 98.3% | % Inhibition 0.25 µM ([2]; pure compounds, 0.25 µM): 87.6% | inhibition at 0.25 µM ([2]; pure compounds, 0.25 µM): ~100% | inhibition at 1 µM ([2]; pure compounds): 98.5% | concentration from which PARK7 is engaged ([3]; HEK293T cells, 0.1–5 μM dilution series): 1 µM | inhibition at 1.25 µM [4]: 91.8%

N#CN1CC[C@@H](C(=O)Nc2nc3c(s2)CN(C(=O)CN=[N+]=[N-])CC3)C1 [JYQ-88, reference compound]
inhibition at 0.25 µM ([2]; pure compounds, 0.25 µM): 55.4% | inhibition at 1 µM ([2]; pure compounds): 83.2% | cellular PARK7 engagement of JYQ-88 ([3]; intact HEK293T cells, concentration series): did not show inhibition of PARK7 in cells; also recorded: poor cellular engagement | IC50 [5]: 120 nM

CC1=CC(C)=[N+]2C1=C(CCCCc1cn(CC(=O)N3CCN(S(=O)(=O)c4cccc(C(=O)N5CCc6nc(NC(=O)[C@@H]7CCN(C#N)C7)sc6C5)c4)CC3)nn1)c1c(C)cc(C)n1[B-]2(F)F [JYQ-191]
labeling of PARK7 in cells ([6]; HEK293T and A549 cells): inefficient labeling of cellular PARK7 | probe concentration giving complete labeling of recombinant PARK7 (Coomassie band shift) [7]: 5 µM

CC[N+]1=C(/C=C/C=C/C=C2/N(CCCCCC(=O)NCCCc3cn(CC(=O)N4CCN(S(=O)(=O)c5cccc(C(=O)N6CCc7nc(NC(=O)[C@@H]8CCN(C#N)C8)sc7C6)c5)CC4)nn3)c3ccc(S(=O)(=O)[O-])cc3C2(C)C)C(C)(C)c2cc(S(=O)(=O)O)ccc21 [JYQ-192]
cellular PARK7 labeling efficiency over time [6]: labeled a small portion of cellular PARK7 even after 24 h incubation | labeling of PARK7 in cells ([6]; HEK293T and A549 cells): clear band around 25 kDa | probe concentration giving complete labeling of recombinant PARK7 (Coomassie band shift) [7]: 2 µM

CC1=CC(C)=[N+]2C1=C(CCCCc1cn(-c3ccc(F)c(C(=O)N4CCc5nc(NC(=O)[C@@H]6CCN(C#N)C6)sc5C4)c3)nn1)c1c(C)cc(C)n1[B-]2(F)F [JYQ-196]
cellular PARK7 labeling efficiency over time [6]: complete labeling of cellular PARK7 after 4 h incubation | labeling of PARK7 in cells ([6]; HEK293T and A549 cells): clear band around 25 kDa | specificity of labeling (PARK7 siRNA depletion) ([6]; HEK293T and A549 cells, siPARK7 48 h, then 5 μM for 4 h): unspecific labeling of other proteins | probe concentration giving complete labeling of recombinant PARK7 (Coomassie band shift) [7]: 2 µM

CC[N+]1=C(/C=C/C=C/C=C2/N(CCCCCC(=O)NCCCc3cn(-c4ccc(F)c(C(=O)N5CCc6nc(NC(=O)[C@@H]7CCN(C#N)C7)sc6C5)c4)nn3)c3ccc(S(=O)(=O)O)cc3C2(C)C)C(C)(C)c2cc(S(=O)(=O)[O-])ccc21 [JYQ-197]
cellular PARK7 labeling efficiency over time [6]: labeled a small portion of cellular PARK7 even after 24 h incubation | labeling of PARK7 in cells ([6]; HEK293T and A549 cells): clear band around 25 kDa | probe concentration giving complete labeling of recombinant PARK7 (Coomassie band shift) [7]: 1 µM

O=C1C(=O)N(CCc2ccccc2)c2ccc(F)cc21 [STK793590]
IC50 [5]: 130 nM
